Laboratory results as given in patent publication US20220033405A1, “PHARMACEUTICAL COMPOSITION FOR PREVENTING OR TREATING CANCER CONTAINING PLK1 INHIBITOR AS ACTIVE INGREDIENT” (NATIONAL CANCER CENTER, priority 2018, published 2022).
One block for each molecule: values may come before it.

Key:
HepG2 cells = test: Cell viability after treatment (Hoechst 33342); assay type: cell-based; settings: HepG2, various concentrations, two treatments 48 hours apart
Procedure: HepG2 cells, a hepatocellular carcinoma cell line, were plated with 4 to 6 replications at each hit compound concentration in a 96-well microtiter plate supplemented with a culture medium. The hit compound dissolved in DMSO was added the next day according to the design of experiments, and the number of seeded cells was determined by the cell density reaching 80% on the final day of the protocol treated as a cell control. After 24 hours of cell seeding, cells were treated with hit compounds (M2 and BI2536) at various concentrations, and 48 hours after primary treatment, the medium was aspirated and then secondary treatment was performed. After 48 hours, cell nuclei were visualized by 2.5 μM Hoechst 33342 staining at 37° C. for 30 minutes, then the medium was aspirated and washed with a fresh medium. The plate was read using Cytation™ 3 (BioTek, USA), the cell viability was analyzed, and the results were presented as a relative percentage of viable cells after treatment with the hit compound compared to the control treatment.

SNU-449 = test: Cell cycle by flow cytometry, phospho-histone H3 (Ser10) staining; assay type: cell-based; settings: M2 20, 40, 80 μM, BI2536 20 nM
Procedure: Flow cytometry equipment was used to confirm the effect on the cell cycle in the case of treatment with Compound 2 (M2). SNU-449, which is one of the liver cancer cell lines, were treated with Compound 2 (M2) at each of concentrations of 20, 40, and 80 μM after 1 day and 3 days, and were harvested after another 2 days.
Furthermore, it was intended to more specifically stain a cell population that stopped in the metaphase of cell division using a phospho-histone H3 (Ser10) antibody capable of specifically staining only the cells that stopped in the metaphase of cell division. As a positive control, cells were treated with BI2536 known as a PLK1 kinase inhibitor at 20 nM and used to observe cells in the metaphase of cell division and an increase in the G2/M phase.

HepG2 cell = test: Apoptosis by annexin V-FITC / PI flow cytometry; assay type: cell-based; settings: HepG2, 3 days; M2 20 or 100 μM; BI2536 20 or 100 nM
Procedure: To analyze the pattern of apoptosis by exposure to M2, HepG2 cell, a hepatocellular carcinoma cell line, were treated with 20 or 100 μM M2 and 20 or 100 nM BI2536 for 3 days. The apoptosis was detected by annexin V-fluorescein isothiocyanate (annexin V-FITC) and propidium iodide (PI) staining of necrotic and apoptosis cells. First, cells were harvested and washed once with PBS. The cells were then resuspended in a 100 μl binding buffer containing 4 μl of Annexin V (BD, 51-65874X) and PI (BD, 51-66211E). The cells were stained at 37° C. for 15 minutes in the dark and then analyzed using FACSan (BD, San Jose, Calif.). Data was analyzed using CELLQuest software (BD).

PLK1 = PLK1 position in the cell (r-tubulin, PLK1, DAPI staining); assay type: cell-based
[1] = tested on: HepG2 orthotopic xenograft; test: Liver cancer orthotopic xenograft model (HepG2), 19 injections; assay type: in vivo, BalB/c nude mice; settings: M2 9.1 mg/kg, BI2536 1 mg/kg, 19 injections
Procedure: 5×10^6 HepG2 cells, which are a hepatocellular carcinoma cell line, were injected into the back skin of BalB/c nude mice, and when a sufficient cancer tissue was formed about 3 weeks later, the tissue was removed, uniformly cut into 1 mm^3, and transplanted into the right median lobe of the liver by excising the abdomen within 1 cm.
The doses of 9.1 mg/kg of M2 and 1 mg/kg of BI2536 were selected based on the present inventor's previous in vitro experiments on HCC cells. Administration began 7 days after cell injection, and an equivalent amount of DMSO for the highest concentration of drug was used as a solvent control for each experiment. Each drug was injected a total of 19 injections based on 5 times/week.

[2] = target: T1, PBD of PLK1 (GST-tagged target protein) (Homo sapiens, UniProt P53350); test: IC50 measurement by FP assay; assay type: binding; settings: FITC-labeled 1010pT peptide
T1 construct: made in house
T1 sequence (P53350 367-603 limits assumed): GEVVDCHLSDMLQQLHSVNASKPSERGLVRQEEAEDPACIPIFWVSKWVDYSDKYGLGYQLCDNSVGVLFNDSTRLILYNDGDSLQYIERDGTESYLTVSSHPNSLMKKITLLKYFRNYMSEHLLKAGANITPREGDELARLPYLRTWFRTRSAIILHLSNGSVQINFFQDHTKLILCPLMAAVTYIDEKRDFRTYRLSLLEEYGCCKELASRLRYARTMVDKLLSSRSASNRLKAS
Procedure: The IC50 of the compound was intended to be analyzed by performing the FP assay shown in Example 1 on the compound and the hit compound discovered by the primary and secondary compound screening and various derivatives thereof. For this purpose, a target protein to which GST-tag was bound was isolated using a GST resin, and 15 mg/ml of the pure target protein to which GST-tag was bound was obtained by finally performing gel filtration. The target protein was diluted with a reaction buffer and prepared at each of concentrations of 12 uM, 3 uM, and 1.5 uM, and an FITC-bound peptide (FITC-labeled 1010pT (GVLS-pT-LI-NH2)) stored in a brown tube was diluted with a reaction buffer and prepared at a concentration of 30 nM. Further, the compound at a concentration of 100 mM was diluted with a reaction buffer and prepared at each of 160.0 uM, 80.0 uM, 40.0 uM, 20.0 uM, 10.0 uM, 5.0 uM, 2.5 uM, 1.25 uM, 0.625 uM, 0.3125 uM, 0.15625 uM, and 0.0 uM. […] When the reaction was completed, the fluorescence polarization value was measured using Infinite F200 Pro (TECAN Group Ltd, Switzerland) after setting the excitation wavelength and the emission wavelength to 485 nm and 535 nm, respectively, and setting the G-Factor to 1.077. […] Binding curves were analyzed using Graphpad Prism (GraphPad Software, San Diego, Calif., USA).

[3] = target: T2, PBD domain of PLK1 (PLK1-PBD protein) (Homo sapiens, UniProt P53350); test: Compound screening by fluorescence polarization (FP) competition assay; assay type: binding; settings: FITC-labeled 1010pT peptide + PLK1-PBD; about 300 with no compound added
T2 construct: a 4 μM PLK1-PBD protein
T2 sequence (P53350 367-603 limits assumed): as above
Procedure: For this purpose, a fluorescence polarization competition assay was performed by mixing a conjugate of a PBD site of PLK1 purified in a solution and a peptide (FITC-labeled 1010pT (GVLSpTLI-NH2)) to which FITC fluorescence was bound with a low molecular weight compound to be screened.
More specifically, after a reaction was performed at room temperature for 30 minutes by preparing a 4 μM PLK1-PBD protein, a 10 nM peptide (FITC-labeled 1010pT (GVLSpTLI-NH2)), and a 20 μl candidate compound at each concentration and putting the respective components into a black 96-well plate for mixing, fluorescence polarization (mp) values were measured using Infinite F200 Pro (TECAN Group Ltd, Switzerland). An average value was derived by performing this experiment three times by the same method, and the excitation wavelength and the emission wavelength were set at 485 nm and 535 nm, respectively.

MDA-MB-468 cells = test: Cancer cell growth inhibition (DAPI nuclei count), breast cancer line; assay type: cell-based; settings: treated 1 and 3 days after attachment
Procedure: For this purpose, experiments were performed using liver cancer, breast cancer, hematologic cancer, cervical cancer, and prostate cancer cell lines, a murine liver cancer cell line HEPA 1-6 and a breast cancer cell line MDA-MB-468 were cultured in a DMEM medium supplemented with 10% fetal bovine serum (FBS) and 1% penicillin/streptomycin, the other cell lines were cultured in a RPMI1640 medium supplemented with the same additives, and the cell lines were used in the experiment.
To examine the ability of the compound to inhibit the growth of the breast cancer cell line, the compounds was treated at each indicated μM concentration 1 and 3 days after cell attachment, and the control was treated with a 0.1% solvent (DMSO). […] After the cells were additionally rinsed once with PBS, cells stained with DAPI were photographed by Cytation 3, and the resulting images were analyzed with Gen5 software (Biotek, USA). Meanwhile, cells that grew in a floating manner without being attached to the culture plate were treated with a 4% paraformaldehyde solution, reacted at room temperature for 10 minutes to fix the cells, and then photographed in a bright field by Cytation3, and the resulting images were analyzed by Gen5 software (Biotek, USA). […]

[4] = tested on: JIMT1 human breast cancer cells; test: Cancer cell growth inhibition, M2 variants in JIMT1; assay type: cell-based
Procedure: (§1) To examine the ability of the compound to inhibit the growth of the breast cancer cell line, the compounds was treated at each indicated μM concentration 1 and 3 days after cell attachment, and the control was treated with a 0.1% solvent (DMSO). After another two days, the cell lines that were attached to the culture plate and grew were rinsed with 1×PBS and treated with 4% paraformaldehyde at room temperature for 10 minutes to fix the cells. Then, after cells were rinsed twice with PBS, the fixed cells were treated with a 0.5% Triton X-100 solution and reacted at room temperature for 15 minutes, rinsed another three times with PBS, and then treated with a DAPI reagent at 0.5 μg/ml, and reacted at 37° C. for 10 minutes to stain the cell nuclei. After the cells were additionally rinsed once with PBS, cells stained with DAPI were photographed by Cytation 3, and the resulting images were analyzed with Gen5 software (Biotek, USA). Meanwhile, cells that grew in a floating manner without being attached to the culture plate were treated with a 4% paraformaldehyde solution, reacted at room temperature for 10 minutes to fix the cells, and then photographed in a bright field by Cytation3, and the resulting images were analyzed by Gen5 software (Biotek, USA).

[5] = tested on: HepG2 human liver cancer cells; test: Reactivity of M2 variants in HepG2; assay type: cell-based
Procedure: as §1
(§2) To analyze the ability to inhibit the growth of liver cancer cell lines, 6.6×10^3 HepG2 cells per well, 1×10^3 cells of each of Hep3B, SNU-475, and SNU-449 per well, and 2×10^3 SNU-387 cells per well were aliquoted in a 96-well plate, cultured in the same manner as described above, treated with Compound 2 (M2), Compound 3 (M4), Compound 4 (M21), Compound 5 (M23), and Compound 6 (M25), and then the ability to inhibit the growth of cells was analyzed.

[6] = tested on: SNU449 human liver cancer cells; test: Reactivity of M2 variants in SNU449; assay type: cell-based
Procedure: as §1, §2

SMILES: CC[C@@H]1C(=O)N(C)c2cnc(Nc3ccc(C(=O)NC4CCN(C)CC4)cc3OC)nc2N1C1CCCC1 [BI2536, reference compound]
cell viability (HepG2 cells): the relatively less the cell viability became
proportion of polyploid cells (SNU-449): remarkably increased
proportion of phospho-histone H3-positive cells (SNU-449; compared to CT): increase in the proportion
apoptosis cells (HepG2 cell): apoptosis cells were increased
apoptosis with increasing dose (HepG2 cell): apoptosis was increased in a dose-dependent manner
chromosome segregation (PLK1): abnormal chromosome segregation was observed
position of PLK1 (PLK1; middle stage of cell division): did not seem to make a relatively large difference
r-tubulin located in the centrosome (staining / position) (PLK1; middle stage of cell division): did not seem to make a relatively large difference
progression of the HCC xenograft calculated by the growth inhibition index [1]: suppressed the progression of the HCC xenograft
growth of tumor cells (macroscopic morphology, MRI) ([1]; 5 times/week): the growth of tumor cells was suppressed

IC50 [2]: ~25 µM
fluorescence polarization value [3]: 180 mp
SMILES: O=C(O)c1ccc2[nH]c3nc(=O)[nH]c(=O)c-3nc2c1 [Compound 1, 2,4-Dioxo-1,2,3,4-tetrahydrobenzo[g]pteridine-7-carboxylic acid]

SMILES: O=c1nc2[nH]c3cc(Cl)ccc3nc-2c(=O)[nH]1 [Compound 3, 8-chloro-1H,2H,3H,4H-benzo[g]pteridine-2,4-dione]
number of cells (MDA-MB-468 cells): the number of cells was remarkably reduced in proportion to the treatment concentration

SMILES: Cc1cc2nc3c(=O)[nH]c(=O)nc-3n(C)c2cc1C [Compound 7, 7,8,10-trimethyl-2H,3H,4H,10H-benzo[g]pteridine-2,4-dione]
number of cancer cells [4]: remarkably reduced the number of cancer cells in a dose-dependent manner
areas of liver cancer cells [5]: remarkably reduced in a dose-dependent manner
number of cancer cells [6]: the number of cancer cells was remarkably reduced in a dose-dependent manner

SMILES: Cc1cc2nc3c(=O)[nH]c(=O)nc-3n(C)c2cc1C=O [Compound 8, 7,10-dimethyl-2,4-dioxo-2H,3H,4H,10H-benzo[g]pteridine-8-carbaldehyde]
number of cancer cells [4]: remarkably reduced the number of cancer cells in a dose-dependent manner
number of cancer cells [6]: the number of cancer cells was remarkably reduced in a dose-dependent manner

SMILES: Cc1cc2nc3c(=O)[nH]c(=O)nc-3n(CCC#N)c2cc1C [Compound 10, 3-{7,8-dimethyl-2,4-dioxo-2H,3H,4H,10H-benzo[g]pteridin-10-yl}propanenitrile]
number of cancer cells [6]: a relatively remarkable cancer cell reduction effect did not appear

SMILES: Cc1cccc(OCCn2c3nc(=O)[nH]c(=O)c-3nc3cc(C(F)(F)F)ccc32)c1 [Compound 11, 10-[2-(3-methylphenoxy)ethyl]-7-(trifluoromethyl)-2H,3H,4H,10H-benzo[g]pteridine-2,4-dione]
number of cancer cells [6]: a relatively remarkable cancer cell reduction effect did not appear

SMILES: Cc1cc2nc3c(=O)[nH]c(=O)nc-3n(C[C@H](O)[C@H](O)[C@H](O)CO)c2cc1C [Compound 12, 7,8-Dimethyl-10-[(2S,3S,4R)-2,3,4,5-tetrahydroxypentyl]benzo[g]pteridine-2,4-dione]
areas of liver cancer cells [5]: relatively low reactivity appeared
number of cancer cells [6]: a relatively remarkable cancer cell reduction effect did not appear
